Reference: US20200038479A1, “WOUND HEALING AGENT HAVING ANTIMICROBIAL ACTIVITY AND WOUND HEALING ACCELERATING ACTIVITY” (MARUHA NICHIRO CORPORATION, priority 2016, published 2020)
“Also recorded” adds a separate entry of the source.

Experiments:
Staphylococcus aureus [1] = assay: Antimicrobial activity test (JIS L 1902:2015 / ISO 20743) on standard cloth; format: cell-based; conditions: cultured 37° C. for 18 to 24 hours
Text: The antimicrobial activity of the protamine component can be evaluated based on an antimicrobial activity value described in “JIS L 1902:2015 Textiles—Determination of antibacterial activity and efficacy of textile products” (ISO 20743), and when a target material has an antimicrobial activity value of 2.0 or more, it can be determined to have the antimicrobial activity.
A standard cloth was cut into an appropriate size with a mass of 0.40 g±0.05 g. Sterile water (a control sample) and each of the test sample solutions (protamine hydrochloride: manufactured by Maruha Nichiro Corporation, protamine sulfate: manufactured by Maruha Nichiro Corporation, silver sulfate: manufactured by Wako Pure Chemical Industries Ltd.) were prepared and filtered, separately.
A Staphylococcus aureus suspension was inoculated by 0.2 mL each in separate several portions on each test piece. Immediately after the inoculation, 20 mL of a saline for washing out was added to some vials for washing out Staphylococcus aureus cells, and then a viable cell count was measured. The rest of the vials without washing-out was cultured at 37° C.±2° C. for 18 to 24 hours. After the cultivation, 20 mL of a saline for washing out was added to each vial for washing out Staphylococcus aureus cells, and then a viable cell count was measured. In accordance with the formula (1), an antimicrobial activity value was calculated, and a sample having an antibacterial activity value of 2.0 or more was determined as having the antimicrobial activity.
A=(log Ct−log C0)−(log Tt−log T0) Formula (1)
A: antibacterial activity value log Ct: arithmetic average common logarithm of viable cell count in a control sample obtained after cultivation for 18 to 24 hours log C0: arithmetic average common logarithm of viable cell count in a control sample obtained immediately after inoculation log Tt: arithmetic average common logarithm of viable cell count in a test sample obtained after cultivation for 18 to 24 hours log T0: arithmetic average common logarithm of viable cell count in a test sample obtained immediately after inoculation

[2] = tested on: full-thickness skin incision wound; assay: Healing test, full-thickness skin incision wound; format: in vivo, rat; conditions: 1.25% by mass on substrate, changed daily, day 1 to 4 of observation, compared with control group and silver sulfate group
Experimental: A substrate (Jintan Medicare sterile pad T, manufactured by Morishita Jintan Co., Ltd.) was prepared, and each of filtered test solutions (protamine hydrochloride, protamine sulfate and silver sulfate) was homogeneously applied to each substrate to obtain a solid content of the active ingredient of 1.25% by mass. In a flank region on either side of an eight-week-old BrlHan: WIST@Jcl (GALAS) rat (four rats used in each test group), a full-thickness skin incision wound with a size of 2.5 cm×2.5 cm was created.
The substrate and the dressing were changed once every day, the incision wound was photographed with a digital camera at the time of the change, and then, an area of the wound was obtained by using image analysis software (Image J, National Institutes of Health, USA). Assuming that the area of the wound on the day of creating the wound (day 0 of observation) was 100%, an area ratio (%) of the wound on each observation date was obtained.

Staphylococcus aureus [3] = assay: Examination of sterilization treatment: antimicrobial activity test after EOG or γ-ray sterilization; format: cell-based; conditions: 1.25% by mass
Experimental: A protamine hydrochloride powder and a protamine sulfate powder were respectively enclosed in sterilization bags (roll bag for IDS, manufactured by Hogy Medical Co., Ltd.). For a control group (not treated), the sterilization treatment was not performed, and the rest was subjected to the EOG sterilization (EOG concentration: 20%, sterilization time: 4 hours, temperature: 55° C.) and the γ-ray sterilization (30 kGy). The standard cloth was cut into an appropriate size with a mass of 0.40 g±0.05 g. Each of the test powders (protamine hydrochloride and protamine sulfate) was dissolved in sterile water, separately, and then the resultant was filtered. […] A Staphylococcus aureus suspension was inoculated by 0.2 mL each in separate several portions on each test piece. Immediately after the inoculation, 20 mL of a saline for washing out was added to some vials for washing out Staphylococcus aureus cells, and then a viable cell count was measured. The rest of the vials without washing-out was cultured at 37° C.±2° C. for 18 to 24 hours. After the cultivation, 20 mL of a saline for washing out was added to each vial for washing out Staphylococcus aureus cells, and then a viable cell count was measured.

[4] = 0.125% by mass on standard cloth
[5] = 1.25% by mass on standard cloth
[6] = EOG Sterilization (20%, 4 hours, 55° C.)

O=S(=O)([O-])[O-].[Ag+].[Ag+] [Silver Sulfate, silver sulfate, reference compound]
Antibacterial Activity Value (Staphylococcus aureus [1]; [4]): ≥2.0
Antibacterial Activity Value (Staphylococcus aureus [1]; [5]): ≥2.0
wound healing accelerating effect (area ratio of the wound) [2]: the wound healing accelerating effect was found in protamine hydrochloride and protamine sulfate alone

protamine hydrochloride
Antibacterial Activity Value (Staphylococcus aureus [1]; [4]): ≥2.0
Antibacterial Activity Value (Staphylococcus aureus [1]; [5]): ≥2.0
wound healing accelerating effect (area ratio of the wound) ([2]; hydrochloride): exhibit a wound healing accelerating effect; also recorded: an effect of accelerating wound healing was observed
Antibacterial Activity Value (Staphylococcus aureus [3]; [6]): ≥2.0
Antibacterial Activity Value (Staphylococcus aureus [3]; Not Treated): ≥2.0
Antibacterial Activity Value (Staphylococcus aureus [3]; γ-ray Sterilization (30 kGy)): ≥2.0

protamine sulfate
Antibacterial Activity Value (Staphylococcus aureus [1]; [4]): ≥2.0
Antibacterial Activity Value (Staphylococcus aureus [1]; [5]): ≥2.0
wound healing accelerating effect (area ratio of the wound) [2]: exhibit a wound healing accelerating effect; also recorded: an effect of accelerating wound healing was observed
Antibacterial Activity Value (Staphylococcus aureus [3]; [6]): ≥2.0
Antibacterial Activity Value (Staphylococcus aureus [3]; Not Treated): ≥2.0
Antibacterial Activity Value (Staphylococcus aureus [3]; γ-ray Sterilization (30 kGy)): ≥2.0
